Source: patent US20260308157A1, “Pyrrolopyrazine Compounds, Preparation Thereof and Therapeutic Uses Thereof” (Sanofi, priority 2023, published 2026)

Key:
[1] = target: T1, activated catalytic domain of protein ERK5 (Homo sapiens, UniProt Q13164); experiment: Cell-Free Assay of ERK5 Inhibition (Time-Resolved Forster Resonance Energy Transfer); type: biochemical; details: ERK5 4 nM, 1 mM ATP, 1 μM biotinylated 4EBP1 peptide, 30 min at 37° C.; TR-FRET; mean where repeated
T1 construct: purchased CarnaBiosciences #04-146
T1 sequence (Q13164 55-347 limits assumed): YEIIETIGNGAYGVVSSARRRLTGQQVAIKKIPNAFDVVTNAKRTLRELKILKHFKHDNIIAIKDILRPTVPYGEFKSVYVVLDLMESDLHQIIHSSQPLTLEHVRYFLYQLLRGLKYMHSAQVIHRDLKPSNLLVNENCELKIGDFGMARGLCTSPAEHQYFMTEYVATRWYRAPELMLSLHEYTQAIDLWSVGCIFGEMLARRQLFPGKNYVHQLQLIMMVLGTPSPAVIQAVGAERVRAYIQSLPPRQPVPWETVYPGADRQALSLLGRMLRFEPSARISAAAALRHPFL
Method: (§1) Two assays were performed to assess the ERK5 inhibitory activity of compounds of the Examples, a cell-based assay and a cell-free biochemical assay. Where repeat measurements were taken, the value reported is a mean average.
Cell-Free Assay of ERK5 Inhibition
An assay was performed to measure the capacity of each compound to inhibit ERK5 enzymatic activity. Compound potency was evaluated by Time-Resolved Forster Resonance Energy Transfer (FRET system). The activated catalytic domain of protein ERK5 (CarnaBiosciences #04-146) was mixed at 4 nM with varying concentrations of compound and incubated for 30 minutes at room temperature. A mixture of 1 mM ATP and 1 μM biotinylated synthetic peptide was added (Biosyntan GmbH). This synthetic peptide represents amino acids 30-52 of Eukaryotic translation initiation factor 4E-binding protein 1 (see, e.g., the sequence under accession No. NP_004086.1) biotinylated at the N-terminus. After 30 minutes at 37° C., the peptide phosphorylation by ERK5 was measured by addition of FRET reagents consisting of 12.5 µg/ml Streptavidin-XL665, 1 nM Anti-P-4EBP1 antibody and 300 ng/ml Anti-rabbit-K antibody. Following 90 minutes at room temperature fluorescent signals were read on the Pherastar FSX multimod detector from BMG Labtech (Exc° 340 nm, Em1 620 nm, Em2 665 nm). The IC50 values represent the concentration of compound which inhibits the measurable fluorescence signal by […] as compared to the DMSO only control.

Cellular ERK5 Activity = target: T2, Cellular ERK5 Activity (Homo sapiens, UniProt Q13164); experiment: Inhibition of Cellular ERK5 Activity (cell-based assay, MEF2 luciferase reporter in SN12C cells); details: renal cancer cell line SN12C, doxycycline-induced MEK5DD, 0.3-10000 nM, mean where repeated
T2 construct: MEF2-response-element luciferase reporter (pGreenFire1)
T2 sequence (Q13164 whole entry): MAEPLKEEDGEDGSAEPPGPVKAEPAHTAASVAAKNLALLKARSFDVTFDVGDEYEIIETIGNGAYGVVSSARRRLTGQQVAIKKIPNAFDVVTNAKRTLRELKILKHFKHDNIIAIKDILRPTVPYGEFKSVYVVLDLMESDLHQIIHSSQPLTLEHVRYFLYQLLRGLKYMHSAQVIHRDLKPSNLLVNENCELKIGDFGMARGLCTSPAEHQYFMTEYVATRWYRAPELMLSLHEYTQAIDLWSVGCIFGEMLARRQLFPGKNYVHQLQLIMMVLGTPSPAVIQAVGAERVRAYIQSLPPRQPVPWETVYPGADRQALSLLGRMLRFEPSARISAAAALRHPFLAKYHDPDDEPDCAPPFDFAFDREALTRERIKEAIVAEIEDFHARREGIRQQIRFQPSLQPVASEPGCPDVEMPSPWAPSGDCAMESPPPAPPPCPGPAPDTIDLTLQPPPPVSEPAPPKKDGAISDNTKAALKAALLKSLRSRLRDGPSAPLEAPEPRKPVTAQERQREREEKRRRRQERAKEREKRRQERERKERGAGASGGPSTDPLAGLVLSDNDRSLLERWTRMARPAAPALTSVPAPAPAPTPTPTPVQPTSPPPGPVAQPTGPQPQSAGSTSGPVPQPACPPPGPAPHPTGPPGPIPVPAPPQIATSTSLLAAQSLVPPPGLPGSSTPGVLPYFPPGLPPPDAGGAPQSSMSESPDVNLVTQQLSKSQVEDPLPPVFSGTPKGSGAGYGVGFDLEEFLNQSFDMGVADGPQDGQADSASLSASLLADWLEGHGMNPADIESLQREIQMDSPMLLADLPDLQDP
Method: as §1
Inhibition of Cellular ERK5 Activity
The renal cancer cell line SN12C was transduced by a lentivirus pGreenFire1 MEF2 EF1 Neo (ref TR030VA-N) from SBI using standard infection protocol. pGreenFire1 MEF2 EF1 Neo allows the expression of luciferase gene under the control of minimal promoter with MEF2 transcriptional response elements. Cells harboring the reporter construct were selected by geneticin treatment. The selected cells were then transposed by a piggyback based plasmid pCM4007 allowing the expression of constitutively activated MEK5DD under control of TREG3 promoter, a doxycycline regulated promoter. Transposed cells were selected by puromycin treatment. Upon doxycycline treatment (1 μg/ml) MEK5DD was expressed. MEK5DD activates ERK5 that phosphorylates MEF2C protein. Activated MEF2C protein can bind to its transcriptional response elements. Then the luciferase is expressed. In a 96-well plate (96F nuncleon ref137101 thermofisher), 50,000 cells were inoculated in 142.5 μl of RPMI medium containing 10% fetal calf serum, 1% glutamine, and 1 μg/ml doxycycline. After 24 hours, compounds were added in 7.5 μl culture medium (with 2% DMSO to give a final concentration of 0.1%) in order to obtain the desired concentration (0.3-10000 nM). The luciferase activity was measured using the Kit Bright Glo Luminescent Cell Assay Cat E2610 (Promega) according to the manufacturer's protocol. Luminescence was determined using 0.2 second reading/well using a Tecan SPARK. IC50 values were calculated using XLFIT5 for Microsoft Excel using method 205. The IC50 values represent the concentration of compound which inhibits the measurable luminescence signal by 50% as compared to DMSO-treated control cells.

Compound	IC50 [1] [nM]	IC50 (Cellular ERK5 Activity) [nM]
O=C(c1ccc(OC(F)(F)F)cc1)N1CCC(c2c[nH]c3ncc(C4CCOC4)nc23)CC1 (racemic) [Example 5, (rac)-[4-(2-Tetrahydrofuran-3-yl-5H-pyrrolo[2,3-b]pyrazin-7-yl)-1-piperidyl]-[4-(trifluoromethoxy)phenyl]methanone]	212	88
O=C(c1ccc(OC(F)(F)F)cc1)N1CCC(c2c[nH]c3ncc(C4CCOCC4)nc23)C1 (racemic) [Example 25, (rac)-[3-(2-Tetrahydropyran-4-yl-5H-pyrrolo[2,3-b]pyrazin-7-yl)pyrrolidin-1-yl]-[4-(trifluoromethoxy)phenyl]methanone]	–	230
O=C(c1ccc(OC(F)(F)F)cc1)N1CCC(c2c[nH]c3ncc(NC4CCOC4)nc23)CC1 (racemic) [Example 36, (rac)-[4-[2-[[tetrahydrofuran-3-yl]amino]-5H-pyrrolo[2,3-b]pyrazin-7-yl]-1-piperidyl]-[4-(trifluoromethoxy)phenyl]methanone]	291	124
Nc1cc(OC(F)(F)F)ccc1C(=O)N1CCC(c2c[nH]c3ncc(NC4CCOC4)nc23)CC1 (racemic) [Example 37, (rac)-[2-amino-4-(trifluoromethoxy)phenyl]-[4-[2-[[tetrahydrofuran-3-yl]amino]-5H-pyrrolo[2,3-b]pyrazin-7-yl]-1-piperidyl]methanone]	94	60
Nc1cc(S(F)(F)(F)(F)F)ccc1C(=O)N1CCC(c2c[nH]c3ncc(C4CCOCC4)nc23)C1 (racemic) [Example 43, (rac)-[2-amino-4-(pentafluoro-λ^6-sulfanyl)phenyl]-[3-(2-tetrahydropyran-4-yl-5H-pyrrolo[2,3-b]pyrazin-7-yl)pyrrolidin-1-yl]methanone]	9720	357
O=C(c1ccc(OC(F)(F)F)cc1)N1CCC(c2c[nH]c3ncc(NC4CCOC4)nc23)CC1 (single isomer, unassigned; isomer 1) [Example 32, [4-[2-[[tetrahydrofuran-3-yl]amino]-5H-pyrrolo[2,3-b]pyrazin-7-yl]-1-piperidyl]-[4-(trifluoromethoxy)phenyl]methanone, Isomer 1]	361	79
Nc1cc(OC(F)(F)F)ccc1C(=O)N1CCC(c2c[nH]c3ncc(NC4CCOC4)nc23)CC1 (single isomer, unassigned; isomer 1) [Example 34, [2-amino-4-(trifluoromethoxy)phenyl]-[4-[2-[[tetrahydrofuran-3-yl]amino]-5H-pyrrolo[2,3-b]pyrazin-7-yl]-1-piperidyl]methanone, Isomer 1]	94	> 10000
O=C(c1ccc(OC(F)(F)F)cc1)N1CCC(c2c[nH]c3ncc(NC4CCOC4)nc23)CC1 (single isomer, unassigned; isomer 2) [Example 33, [4-[2-[[tetrahydrofuran-3-yl]amino]-5H-pyrrolo[2,3-b]pyrazin-7-yl]-1-piperidyl]-[4-(trifluoromethoxy)phenyl]methanone, Isomer 2]	335	126
Nc1cc(OC(F)(F)F)ccc1C(=O)N1CCC(c2c[nH]c3ncc(NC4CCOC4)nc23)CC1 (single isomer, unassigned; isomer 2) [Example 35, [2-amino-4-(trifluoromethoxy)phenyl]-[4-[2-[[tetrahydrofuran-3-yl]amino]-5H-pyrrolo[2,3-b]pyrazin-7-yl]-1-piperidyl]methanone, Isomer 2]	131	246
O=C(c1ccc(OC(F)(F)F)cc1)N1CCC(c2c[nH]c3ncc(C4CCOCC4)nc23)CC1 [Example 3, [4-(2-Tetrahydropyran-4-yl-5H-pyrrolo[2,3-b]pyrazin-7-yl)-1-piperidyl]-[4-(trifluoromethoxy)phenyl]methanone]	172	41
COCCCc1cnc2[nH]cc(C3CCN(C(=O)c4ccc(OC(F)(F)F)cc4)CC3)c2n1 [Example 6, [4-[2-(3-Methoxypropyl)-5H-pyrrolo[2,3-b]pyrazin-7-yl]-1-piperidyl]-[4-(trifluoromethoxy)phenyl]methanone]	403	118
COCCCc1cnc2[nH]cc(C3CCN(C(=O)c4ccc(OC(F)(F)F)cc4N)CC3)c2n1 [Example 7, [2-Amino-4-(trifluoromethoxy)phenyl]-[4-[2-(3-methoxypropyl)-5H-pyrrolo[2,3-b]pyrazin-7-yl]-1-piperidyl]methanone]	169	56

Results, then the compound that gave them:

IC50 [1] [nM]	IC50 (Cellular ERK5 Activity) [nM]	Compound
130	–	Nc1cc(OC(F)(F)F)ccc1C(=O)N1CCC(c2c[nH]c3ncc(C4CCOC4)nc23)CC1 (racemic) [Example 12, (rac)-[2-Amino-4-(trifluoromethoxy)phenyl]-[4-(2-tetrahydrofuran-3-yl-5H-pyrrolo[2,3-b]pyrazin-7-yl)-1-piperidyl]methanone]
–	261	Nc1cc(OC(F)(F)F)ccc1C(=O)N1CCC(c2c[nH]c3ncc(C4CCOCC4)nc23)C1 (racemic) [Example 24, (rac)-[2-Amino-4-(trifluoromethoxy)phenyl]-[3-(2-tetrahydropyran-4-yl-5H-pyrrolo[2,3-b]pyrazin-7-yl)pyrrolidine-1-yl]methanone]
93	49	Nc1cc(OC(F)(F)F)ccc1C(=O)N1CCC(c2c[nH]c3ncc(C4CCOC4)nc23)CC1 (single isomer, unassigned) [Example 13, [2-Amino-4-(trifluoromethoxy)phenyl]-[4-(2-tetrahydrofuran-3-yl-5H-pyrrolo[2,3-b]pyrazin-7-yl)-1-piperidyl]methanone]
99	46	Nc1cc(OC(F)(F)F)ccc1C(=O)N1CCC(c2c[nH]c3ncc(C4CCOC4)nc23)CC1 (single isomer, unassigned) [Example 14, [2-Amino-4-(trifluoromethoxy)phenyl]-[4-(2-tetrahydrofuran-3-yl-5H-pyrrolo[2,3-b]pyrazin-7-yl)-1-piperidyl]methanone]
17	20	CN1CCC(c2cnc3[nH]cc(C4CCN(C(=O)c5ccc(OC(F)(F)F)cc5N)CC4)c3n2)CC1 [Example 1, [2-Amino-4-(trifluoromethoxy)phenyl]-[4-[2-(1-methyl-4-piperidyl)-5H-pyrrolo[2,3-b]pyrazin-7-yl]-1-piperidyl]methanone]
37	15	Nc1cc(OC(F)(F)F)ccc1C(=O)N1CCC(c2c[nH]c3ncc(C4CCOCC4)nc23)CC1 [Example 2, [2-Amino-4-(trifluoromethoxy)phenyl]-[4-(2-tetrahydropyran-4-yl-5H-pyrrolo[2,3-b]pyrazin-7-yl)-1-piperidyl]methanone]
66	60	CN1CCC(c2cnc3[nH]cc(C4CCN(C(=O)c5ccc(OC(F)(F)F)cc5)CC4)c3n2)CC1 [Example 4, [4-[2-(1-Methyl-4-piperidyl)-5H-pyrrolo[2,3-b]pyrazin-7-yl]-1-piperidyl]-[4-(trifluoromethoxy)phenyl]methanone]
39	–	Nc1cc(OC(F)(F)F)ccc1C(=O)N1CCC(c2c[nH]c3ncc([C@H]4CC[C@H](O)CC4)nc23)CC1 [Example 30, trans-[2-amino-4-(trifluoromethoxy)phenyl]-[4-[2-(4-hydroxycyclohexyl)-5H-pyrrolo[2,3-b]pyrazin-7-yl]-1-piperidyl]methanone]
